Measured values reported in ChEMBL document CHEMBL4004849, “Tetrazolylmethyl quinolines: Design, docking studies, synthesis, anticancer and antifungal analyses” (2017).
Values after ≈ are worked out from the molar mass of the structure shown. Active and inactive are the calls of the source. The rule behind the calls is not given here.

Key:
Type in all cases: functional
[1] = test system: K562; assay: Growth inhibition of human K562 cells at 10^-5 M incubated for 48 hrs by sulforhodamine B assay relative to control
[2] = test system: MOLT-4; assay: Growth inhibition of human MOLT4 cells at 10^-5 M incubated for 48 hrs by sulforhodamine B assay relative to control
[3] = test system: SR; assay: Growth inhibition of human SR cells at 10^-5 M incubated for 48 hrs by sulforhodamine B assay relative to control
[4] = test system: A549; assay: Growth inhibition of human A549/ATCC cells at 10^-5 M incubated for 48 hrs by sulforhodamine B assay relative to control
[5] = test system: NCI-H226; assay: Growth inhibition of human NCI-H226 cells at 10^-5 M incubated for 48 hrs by sulforhodamine B assay relative to control
[6] = test system: NCI-H23; assay: Growth inhibition of human NCI-H23 cells at 10^-5 M incubated for 48 hrs by sulforhodamine B assay relative to control
[7] = test system: NCI-H460; assay: Growth inhibition of human NCI-H460 cells at 10^-5 M incubated for 48 hrs by sulforhodamine B assay relative to control
[8] = test system: NCI-H522; assay: Growth inhibition of human NCI-H522 cells at 10^-5 M incubated for 48 hrs by sulforhodamine B assay relative to control
[9] = test system: COLO 205; assay: Growth inhibition of human COLO205 cells at 10^-5 M incubated for 48 hrs by sulforhodamine B assay relative to control
[10] = test system: HCC 2998; assay: Growth inhibition of human HCC2998 cells at 10^-5 M incubated for 48 hrs by sulforhodamine B assay relative to control
[11] = test system: HCT-116; assay: Growth inhibition of human HCT116 cells at 10^-5 M incubated for 48 hrs by sulforhodamine B assay relative to control
[12] = test system: HT-29; assay: Growth inhibition of human HT-29 cells at 10^-5 M incubated for 48 hrs by sulforhodamine B assay relative to control
[13] = test system: KM12; assay: Growth inhibition of human KM12 cells at 10^-5 M incubated for 48 hrs by sulforhodamine B assay relative to control
[14] = test system: SW-620; assay: Growth inhibition of human SW620 cells at 10^-5 M incubated for 48 hrs by sulforhodamine B assay relative to control
[15] = test system: SF-268; assay: Growth inhibition of human SF268 cells at 10^-5 M incubated for 48 hrs by sulforhodamine B assay relative to control
[16] = test system: SF-295; assay: Growth inhibition of human SF295 cells at 10^-5 M incubated for 48 hrs by sulforhodamine B assay relative to control
[17] = test system: SF-539; assay: Growth inhibition of human SF539 cells at 10^-5 M incubated for 48 hrs by sulforhodamine B assay relative to control
[18] = test system: SNB-19; assay: Growth inhibition of human SNB19 cells at 10^-5 M incubated for 48 hrs by sulforhodamine B assay relative to control
[19] = test system: U-251; assay: Growth inhibition of human U251 cells at 10^-5 M incubated for 48 hrs by sulforhodamine B assay relative to control
[20] = test system: Malme-3M; assay: Growth inhibition of human MALME-3M cells at 10^-5 M incubated for 48 hrs by sulforhodamine B assay relative to control
[21] = test system: M14; assay: Growth inhibition of human M14 cells at 10^-5 M incubated for 48 hrs by sulforhodamine B assay relative to control
[22] = test system: MDA-MB-435; assay: Growth inhibition of human MDA-MB-435 cells at 10^-5 M incubated for 48 hrs by sulforhodamine B assay relative to control
[23] = test system: SK-MEL-28; assay: Growth inhibition of human SK-MEL-28 cells at 10^-5 M incubated for 48 hrs by sulforhodamine B assay relative to control
[24] = test system: SK-MEL-5; assay: Growth inhibition of human SK-MEL-5 cells at 10^-5 M incubated for 48 hrs by sulforhodamine B assay relative to control
[25] = test system: UACC-257; assay: Growth inhibition of human UACC257 cells at 10^-5 M incubated for 48 hrs by sulforhodamine B assay relative to control
[26] = test system: UACC-62; assay: Growth inhibition of human UACC62 cells at 10^-5 M incubated for 48 hrs by sulforhodamine B assay relative to control
[27] = test system: IGROV-1; assay: Growth inhibition of human IGROV1 cells at 10^-5 M incubated for 48 hrs by sulforhodamine B assay relative to control
[28] = test system: OVCAR-3; assay: Growth inhibition of human OVCAR3 cells at 10^-5 M incubated for 48 hrs by sulforhodamine B assay relative to control
[29] = test system: OVCAR-4; assay: Growth inhibition of human OVCAR4 cells at 10^-5 M incubated for 48 hrs by sulforhodamine B assay relative to control
[30] = test system: OVCAR-5; assay: Growth inhibition of human OVCAR5 cells at 10^-5 M incubated for 48 hrs by sulforhodamine B assay relative to control
[31] = test system: OVCAR-8; assay: Growth inhibition of human OVCAR8 cells at 10^-5 M incubated for 48 hrs by sulforhodamine B assay relative to control
[32] = test system: SK-OV-3; assay: Growth inhibition of human SKOV3 cells at 10^-5 M incubated for 48 hrs by sulforhodamine B assay relative to control
[33] = test system: ACHN; assay: Growth inhibition of human ACHN cells at 10^-5 M incubated for 48 hrs by sulforhodamine B assay relative to control
[34] = test system: CAKI-1; assay: Growth inhibition of human Caki1 cells at 10^-5 M incubated for 48 hrs by sulforhodamine B assay relative to control
[35] = test system: RXF 393; assay: Growth inhibition of human RXF393 cells at 10^-5 M incubated for 48 hrs by sulforhodamine B assay relative to control
[36] = test system: UO-31; assay: Growth inhibition of human UO31 cells at 10^-5 M incubated for 48 hrs by sulforhodamine B assay relative to control
[37] = test system: MCF7; assay: Growth inhibition of human MCF7 cells at 10^-5 M incubated for 48 hrs by sulforhodamine B assay relative to control
[38] = test system: MDA-MB-231; assay: Growth inhibition of human MDA-MB-231/ATCC cells at 10^-5 M incubated for 48 hrs by sulforhodamine B assay relative to control
[39] = test system: Hs-578T; assay: Growth inhibition of human Hs 578T cells at 10^-5 M incubated for 48 hrs by sulforhodamine B assay relative to control
[40] = test system: BT-549; assay: Growth inhibition of human BT549 cells at 10^-5 M incubated for 48 hrs by sulforhodamine B assay relative to control
[41] = test system: MDA-MB-468; assay: Growth inhibition of human MDA-MB-468 cells at 10^-5 M incubated for 48 hrs by sulforhodamine B assay relative to control
[42] = test system: Candida albicans; assay: Antifungal activity against Candida albicans at 100 ug/ml by disc diffusion method; details: read-out: IZ
[43] = test system: Aspergillus fumigatus; assay: Antifungal activity against Aspergillus fumigatus at 100 ug/ml by disc diffusion method; details: read-out: IZ
[44] = test system: Aspergillus fumigatus; assay: Antifungal activity against Aspergillus fumigatus after 24 hrs by serial dilution method

SMILES: Clc1nc2ccccc2cc1Cn1nnnc1Cc1ccccc1
- growth inhibition (GI) [1]: Active
- growth inhibition (GI) [2]: Active
- growth inhibition (GI) [3]: Active
- growth inhibition (GI) [4]: Active
- growth inhibition (GI) [5]: Active
- growth inhibition (GI) [6]: Active
- growth inhibition (GI) [7]: Active
- growth inhibition (GI) [8]: Active
- growth inhibition (GI) [9]: Active
- growth inhibition (GI) [10]: Active
- growth inhibition (GI) [11]: Active
- growth inhibition (GI) [12]: Active
- growth inhibition (GI) [13]: Active
- growth inhibition (GI) [14]: Active
- growth inhibition (GI) [15]: Active
- growth inhibition (GI) [16]: Active
- growth inhibition (GI) [17]: Active
- growth inhibition (GI) [18]: Active
- growth inhibition (GI) [19]: Active
- growth inhibition (GI) [20]: Active
- growth inhibition (GI) [21]: Active
- growth inhibition (GI) [22]: Active
- growth inhibition (GI) [23]: Active
- growth inhibition (GI) [24]: Active
- growth inhibition (GI) [25]: Active
- growth inhibition (GI) [26]: Active
- growth inhibition (GI) [27]: Active
- growth inhibition (GI) [28]: Active
- growth inhibition (GI) [29]: Active
- growth inhibition (GI) [30]: Active
- growth inhibition (GI) [31]: Active
- growth inhibition (GI) [32]: Active
- growth inhibition (GI) [33]: Active
- growth inhibition (GI) [34]: Active
- growth inhibition (GI) [35]: Active
- growth inhibition (GI) [36]: Active
- growth inhibition (GI) [37]: Active
- growth inhibition (GI) [38]: Active
- growth inhibition (GI) [39]: Active
- growth inhibition (GI) [40]: Active
- growth inhibition (GI) [41]: Active
- zone of inhibition at 100 µg/mL [42]: 10 mm
- zone of inhibition at 100 µg/mL [43]: 14 mm
- MIC [44]: 50 µg/mL (≈ 149 µM)
